# From US11154515B2, “Pharmaceutical compositions comprising cannabidiol and beta-caryophyllene and methods for their use” (priority 2017, dated 2021)
# Like-named read-outs stand apart in the source and are kept apart here.
# Columns and labels:
# [1] = tested on: NF-κB and AP-1 inducible SEAP reporter in RAW-Blue™ cells; experiment: RAW-Blue™ cells Quanti-Blue™ SEAP reporter assay, LPS-stimulated (high-throughput inflammatory assay); assay type: cell-based, murine
# From the text: RAW 264.7 macrophages are commonly used to study the functional characteristics of the endocannabinoid system (ECS). Specifically, this model is widely employed to assess the anti-inflammatory functions of the ECS (Carrier, et al. 2006, “Inhibition of an equilibrative nucleoside transporter by cannabidiol: A mechanism of cannabinoid immunosuppression,” PNAS, 103(20), 7895-7900). RAW-Blue™ cells are derived from RAW 264.7 macrophages and are genetically modified to comprise a secreted embryonic alkaline phosphatase (SEAP) reporter construct that is inducible by NF-κB and AP-1. These RAW-Blue™ cells express a variety of pattern recognition receptors, including Toll like receptor 4 (TLR4). The activation of these pattern recognition receptors on the RAW-Blue™ cells (e.g., by lipopolysaccharide (LPS) in the case of TLR4) induces signaling through NF-κB and/or AP-1, thereby leading to increased secretion of the SEAP reporter gene. Therefore, the RAW-Blue™ macrophages and provide a robust, high-throughput model of inflammatory processes.
# RAW-Blue™ cells were cultured in high-glucose containing Dulbecco's Modified Eagle Medium (Merck) supplemented with 10 (V/V) % fetal bovine serum (FBS; ThermoFisher), 2-4 mM L-glutamine, 50 U/mL penicillin, 50 μg/mL streptomycin as well as with antibiotics for selection: 100 μg/mL Normocin™ (InvivoGen) and Zeocin™ (InvivoGen). Cells were cultured at 37° C. in humidified, 5% CO2 containing atmosphere. The medium was changed every other day, and cells were sub-cultured at 70-80% confluence.
# For each of these phases, 100,000 RAW-Blue™ cells/well were seeded in a 96-well plate in triplicate and cultured for 24 hours to allow attachment of the macrophages to the cell culture plate. After 24 hrs cells were pre-treated with selected concentrations of CBD, BCP, or CBD+BCP. Two hours after drug pre-treatment, cells were stimulated with 0.1 μg/mL LPS (Sigma-Aldrich) to induce activation of the TLR4 pathway. After 24 hours of LPS stimulation, 150 μL Quanti-Blue™ Medium was aliquoted per well in a 96-well plate and 50 μL of the experimental supernatants were added per well. Cell culture medium was used as negative control. After 1 hour incubation, SEAP levels were detected by measuring absorbance levels at λ=650 nm at 37° C. Results are expressed as a % decrease in SEAP levels in drug-treated, LPS-stimulated groups compared to the SEAP level of the untreated, LPS-stimulated group (regarded as 100%). All experiments were repeated 2-3 times.
# [2] = tested on: OXA-induced ear edema, ACD mouse model; experiment: Oxazolone-induced allergic contact dermatitis model, ear edema; assay type: in vivo; details: for OXA-induced edema formation: topically applied 1 μM
# Method: Prednisolone was solved in 1:1 of DMSO/saline and was administered topically (15-15 μL to the inner and outer surface of the ears). All other test compounds were solved in 96% ethanol. All solutions of all the concentrations were prepared freshly on the first day of every experiment and were stored at 4° C., then shaken properly before the treatments.
# Anesthesia was induced by ketamine (Richter Gedeon, Budapest, Hungary) (100 mg/kg i.p., repeated as required) with xylazine (Lavet Ltd., Budapest, Hungary) (5 mg/kg i.m.). Animals were sensitized on two consecutive days by painting 2% oxazolone (50-50 μL, Merck KGaA) on the shaved abdomen. On the 6th day the right ears were smeared with 2% oxazolone (OXA) dissolved in 96% ethanol: 15-15 μL solution was applied on each of the inner and outer surfaces. Control ears were treated with 96% ethanol in the same way. Drug-treated groups were treated with 15-15 μL of drug solution smeared to the inner and outer side of the ears every 4 hrs of the experiment after oxazolone treatment. A schematic of the experimental protocol is provided in FIG. 24 and the experimental groups are defined below. • (a) Group 1: Ethanol-treated Controls: left ear: 96% ethanol, right ear: 2% oxazolone • (b) Group 2: 1 μM CBD • (c) Group 3: 10 μM CBD • (d) Group 4: 1 μM HU101 • (e) Group 5: 10 μMHU101
# Ear thickness was measured with an engineer's micrometer, with 0.1 mm accuracy, before challenge with test agents and after the challenge at different time points. Data are expressed as % increase of ear thickness compared to the initial values.
# Results are expressed as mean±SEM. Comparisons between different treatment groups were performed using two-way ANOVA followed by Sidak's post hoc test for skin thickness and one-way ANOVA followed by Bonferroni's post hoc test for MPO and vascular leakage. * p<0.05 was considered to be significant.
# RAW-Blue™ cells = experiment: MTT cell viability assay, RAW-Blue™ cells; details: CBD 30 μM; BCP 300 μM
# [3] = Mus musculus, RAW-Blue, read-out: % Inhibition Alone
compound,measurement,setting,value
"C=C1CC/C=C(\C)CC[C@H]2[C@H]1CC2(C)C [BCP, (E)-beta-caryophyllene]",inhibition at 0.0001 µM,[1]; [3],0%
same,inhibition at 0.001 µM,[1]; [3],1 ± 0.8%
same,inhibition at 0.01 µM,[1]; [3],3.8 ± 1.9%
same,inhibition at 0.013 µM,[1]; [3],9.2%
same,inhibition at 0.1 µM,[1]; [3],8 ± 6.4%
same,inhibition at 0.13 µM,[1]; [3],0%
same,inhibition at 0.3 µM,[1]; [3],1.6 ± 1.4%
same,inhibition at 1 µM,[1]; [3],2.5 ± 2%
same,inhibition at 3 µM,[1]; [3],1.25 ± 1%
same,inhibition at 10 µM,[1]; [3],28.6 ± 14.3%
same,inhibition at 30 µM,[1]; [3],0%
same,inhibition at 100 µM,[1]; [3],11.7 ± 5.8%
same,inhibition at 300 µM,[1]; [3],92.2 ± 17.1%
same,anti-inflammatory actions when applied alone,[1]; SEAP levels,only minor (if any) anti-inflammatory actions
same,% Inhibition Alone,"[1]; single agent 300 μM, * possibly cytotoxicity",*92.2 ± 17.1%
"C=C(C)[C@@H]1CCC(C)=C[C@H]1c1c(O)cc(CCCCC)cc1O [CBD, cannabidiol]",inhibition at 10 pM,"[1]; Mus musculus, RAW-Blue, single agent 0.00001 μM, read-out: % Inhibition Alone",1.9 ± 0.9%
same,inhibition at 0.0001 µM,"[1]; Mus musculus, RAW-Blue, single agent 0.0001 μM, read-out: % Inhibition Alone",2.4 ± 2%
same,inhibition at 0.001 µM,"[1]; Mus musculus, RAW-Blue, single agent 0.001 μM, read-out: % Inhibition Alone",3.1 ± 3.1%
same,inhibition at 0.01 µM,"[1]; Mus musculus, RAW-Blue, single agent 0.01 μM, read-out: % Inhibition Alone",5.8 ± 2.9%
same,inhibition at 0.1 µM,"[1]; Mus musculus, RAW-Blue, single agent 0.1 μM, read-out: % Inhibition Alone",8.5%
same,inhibition at 0.3 µM,"[1]; Mus musculus, RAW-Blue, single agent 0.3 μM, read-out: % Inhibition Alone",10 ± 0.8%
same,inhibition at 1 µM,"[1]; Mus musculus, RAW-Blue, single agent 1 μM, read-out: % Inhibition Alone",44.6%
same,inhibition at 3 µM,"[1]; Mus musculus, RAW-Blue, single agent 3 μM, read-out: % Inhibition Alone",40.5 ± 9.5%
same,inhibition at 10 µM,"[1]; Mus musculus, RAW-Blue, single agent 10 μM, read-out: % Inhibition Alone",59.3 ± 3.7%
same,inhibition at 30 µM,"[1]; Mus musculus, RAW-Blue, single agent 30 μM, CBD value flagged * possibly cytotoxicity, read-out: % Inhibition Alone",78 ± 7.9%
same,concentrations with marked effects on SEAP levels,[1]; applied alone,≥ 1 µM
same,% Inhibition Alone,"[1]; single agent 30 μM, CBD value flagged * possibly cytotoxicity",*78 ± 7.9%
same,"Effect in ACD mouse model, significance of ear edema difference","[2]; OXA + CBD 1 μM vs. OXA + CBD 10 μM, 56 h",* (* p ≤ 0.05)
same,"Effect in ACD mouse model, significance of ear edema difference","[2]; OXA vs. OXA + CBD 1 μM, 24 h",** (** p ≤ 0.01)
same,OXA-induced edema formation,[2]; 24 hr time-point,significantly prevented
same,OXA-induced edema formation,[2]; later time-points,only minor
same,anti-inflammatory effect on OXA-induced edema,[2]; topically applied 10 μM,did not exert any anti-inflammatory effect
same,toxicity (as determined by MTT assay),RAW-Blue™ cells,appeared to induce toxicity
